What all share (format): cell-based
One experiment has as its target T1, α1 GlyR (Rattus norvegicus, UniProt P07727).
T1 construct: expressed in transfected cells; host or cells: HEK293 (ATCC CRL-1573)
T1 sequence (P07727 29-457): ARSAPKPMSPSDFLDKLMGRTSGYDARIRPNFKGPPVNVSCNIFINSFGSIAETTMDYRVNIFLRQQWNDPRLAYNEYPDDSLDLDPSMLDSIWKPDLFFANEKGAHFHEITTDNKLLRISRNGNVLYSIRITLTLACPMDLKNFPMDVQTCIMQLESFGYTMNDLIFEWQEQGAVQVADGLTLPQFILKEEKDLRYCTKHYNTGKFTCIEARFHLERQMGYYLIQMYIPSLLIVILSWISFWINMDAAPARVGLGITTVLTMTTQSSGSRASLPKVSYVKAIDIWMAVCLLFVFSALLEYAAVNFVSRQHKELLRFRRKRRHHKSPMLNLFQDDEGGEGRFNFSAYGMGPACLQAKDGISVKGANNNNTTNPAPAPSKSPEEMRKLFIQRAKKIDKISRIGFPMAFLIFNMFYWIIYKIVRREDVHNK
Description: cell-based. The method, then:
(§1) The cells were transfected with plasmids encoding the following proteins: (i). rat GlyR α (1, 2, 3) subunits alone or combined with rat β subunits (Uniprot Accession Numbers: Q546L7, P22771, P20236, P20781); and (ii). rat GABAAR α1 combined with rat β2 and γ2 subunits (Uniprot Accession Numbers: P62813, P63138, P18508). The EGFP expression was used as a marker of successful protein expression. The transfection was performed using Lipofectamine 2000 (Invitrogen, ThermoFisher, Carlsbad, CA, USA) using the fabricant protocol. The plasmids used to express GlyRs and GABAARs have been previously described. To track the successful expression of GlyR β subunits and the GABAA γ2 or β2 subunit, these proteins were subcloned in the pIRES2-EGFP vector. The transfection ratio to obtain β-containing GlyRs was 1:5 of α:β, while the expression of γ2-containing GABAA receptors was 1:2:5 of α:β:γ2 [14, 15]. Chimeric GlyRs were described in a previous report. Site directed mutagenesis was performed by Charm Gene Science Mutagenex LLC. (Cumming, GA, USA). All the constructs were checked by full-length sequencing (SNPSaurus, Eugene, OR, USA).
(§2) In brief, patch electrodes (3–4 MΩ) were pulled from borosilicate glasses in a PC-100 puller (Narishige, Tokyo, Japan); then, they were filled with an intracellular solution, which contained (in mM) 120 CsCl, 8 EGTA, 10 HEPES (pH 7.4), 4 MgCl2, 0.5 GTP, and 2 ATP. The extracellular solution contained (in mM) 140 NaCl, 5.4 KCl, 2.0 CaCl2, 1.0 MgCl2, 10 HEPES (pH 7.4), and 10 glucose. Whole-cell patch-clamp recordings were performed at −60 mV with an Axoclamp 200B (Molecular Devices, Sunnyvale, CA, USA) or with HEKA EPC-10 (HEKA Elektronik GmbH, Reutlingen, Germany) amplifiers. […] Brief (3–5 s) pulses of agonist together with alkaloids were applied to cells. Stock solutions of the alkaloids were prepared in high purity distilled water. Aliquots of these stock solutions were diluted in reservoirs containing extracellular solution. […] The concentration–response curve parameters for the alkaloid inhibition (IC50, nH, and the maximal current inhibition) were obtained from the fitted curve of normalized concentration–response data points to the equation Iagonist = Imax (agonist)nH/((agonist)nH + (EC50)nH). The IC50 curves are best-fit mean ± SE from pooled data. […] The inhibition constant (Ki) was calculated using the Cheng–Prusoff equation (Ki = IC50/((2 + ([Agonist]/EC50)^nH)^1/nH − 1). The concentration of agonist corresponds to the sub-saturating agonist concentration used to obtain the IC50 for each alkaloid on a given GlyR subtype.

For a further experiment, the target named is T2, α2β GlyR (Rattus norvegicus, UniProt P20781+P22771).
T2 construct: The cells were transfected with plasmids encoding the following proteins; expressed in transfected cells; host or cells: HEK293 (ATCC CRL-1573)
Description: cell-based. The protocol:
as §1, §2

In another experiment the target is T3, chimeric α2α1 GlyR (Rattus norvegicus, UniProt P07727+P22771, A288G/A330S/F348L/L351F/V274I).
T3 construct: Relevance of the ECD for the subunit-specific actions of gelsemine on α1GlyRs; fusion partner: GlyR α1 transmembrane and C-terminal part (Glra1, printed Q546L7); expressed in transfected cells; host or cells: HEK293 (ATCC CRL-1573)
T3 sequence (P22771+P07727 with tags, fused parts or gaps P22771:V274I/P22771:A288G/P22771:A330S/P22771:F348L/P22771:L351F): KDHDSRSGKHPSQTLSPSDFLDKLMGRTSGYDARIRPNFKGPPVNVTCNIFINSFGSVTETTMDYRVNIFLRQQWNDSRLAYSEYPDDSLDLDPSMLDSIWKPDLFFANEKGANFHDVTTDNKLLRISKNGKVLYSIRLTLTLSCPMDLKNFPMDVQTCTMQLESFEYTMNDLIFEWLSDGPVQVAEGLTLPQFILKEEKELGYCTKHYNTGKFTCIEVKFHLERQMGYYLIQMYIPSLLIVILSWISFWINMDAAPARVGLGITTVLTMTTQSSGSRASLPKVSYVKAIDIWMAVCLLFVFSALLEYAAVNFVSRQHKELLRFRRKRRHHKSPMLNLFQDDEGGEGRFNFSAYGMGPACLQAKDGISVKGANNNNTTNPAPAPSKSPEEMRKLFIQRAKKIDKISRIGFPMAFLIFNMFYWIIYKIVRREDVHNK
The method, then: as §1
as §2, with “The” for “The inhibition constant (Ki) was calculated using the Cheng–Prusoff equation (Ki = IC50/((2 + ([Agonist]/EC50)^nH)^1/nH − 1). The”

Where [1] appears, read: Hill coefficient of inhibition curve.
The mark [2] stands for this setting: calculated using the Cheng–Prussof equation.

The structures appear in SMILES notation.

Data on 3 compounds can be found in PMC10970644, “Molecular Pharmacology of Gelsemium Alkaloids on Inhibitory Receptors” (International Journal of Molecular Sciences, 2024).

T2 sequence (P22771 28-452): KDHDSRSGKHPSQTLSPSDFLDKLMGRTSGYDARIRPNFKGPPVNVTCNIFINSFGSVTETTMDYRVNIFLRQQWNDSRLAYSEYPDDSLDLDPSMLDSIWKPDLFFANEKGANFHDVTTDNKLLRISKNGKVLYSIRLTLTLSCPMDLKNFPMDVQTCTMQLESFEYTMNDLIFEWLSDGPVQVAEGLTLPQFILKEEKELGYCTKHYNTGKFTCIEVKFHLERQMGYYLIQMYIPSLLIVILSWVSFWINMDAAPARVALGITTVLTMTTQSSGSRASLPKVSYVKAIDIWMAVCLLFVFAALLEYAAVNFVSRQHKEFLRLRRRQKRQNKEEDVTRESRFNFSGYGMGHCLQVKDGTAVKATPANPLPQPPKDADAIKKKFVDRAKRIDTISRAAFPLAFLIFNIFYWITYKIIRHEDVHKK
T2 sequence (P20781 23-496): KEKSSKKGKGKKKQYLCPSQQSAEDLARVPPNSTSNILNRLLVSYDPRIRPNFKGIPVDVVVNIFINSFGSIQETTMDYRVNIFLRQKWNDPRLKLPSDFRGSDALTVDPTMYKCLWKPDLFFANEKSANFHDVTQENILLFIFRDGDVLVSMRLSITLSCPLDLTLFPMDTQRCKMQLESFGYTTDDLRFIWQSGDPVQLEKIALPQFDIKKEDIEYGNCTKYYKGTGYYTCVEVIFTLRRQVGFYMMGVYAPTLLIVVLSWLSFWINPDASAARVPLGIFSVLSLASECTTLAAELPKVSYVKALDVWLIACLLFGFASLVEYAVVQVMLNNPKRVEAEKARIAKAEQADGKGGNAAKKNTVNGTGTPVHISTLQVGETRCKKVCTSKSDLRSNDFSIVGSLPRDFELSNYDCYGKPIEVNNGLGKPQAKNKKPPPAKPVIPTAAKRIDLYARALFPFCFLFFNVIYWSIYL

For orientation: IC50 means the concentration needed to halve the response being measured. A high value points to weaker potency in that assay. Usually Ki stands for a measure of affinity in units of concentration, obtained from inhibition or displacement. For the compound `C=C[C@@]12CN(C)[C@H]3C[C@]14C(=Nc1ccccc14)[C@H]1C[C@@H]2[C@@H]3CO1` [koumine], the IC50 was 31.5 ± 1.7 µM against α1 GlyR and 23.6 ± 8.3 µM on α2β GlyR. In addition, the nH is reported as 1.7 ± 0.1 on α1 GlyR (setting [1]) and 1.3 ± 0.6 on α2β GlyR (setting [1]). Besides, the Ki on α1 GlyR (setting [2]) was 53.1 ± 17.1 µM; on α2β GlyR (setting [2]), 57.4 ± 4 µM. Moreover, the “Maximal Modulation” value at α1 GlyR (percentage change of glycine-evoked current) is −95.0 ± 1.5%.
As to `C=C[C@]12CN(C)[C@@H]3[C@H]4CO[C@H](C[C@H]41)[C@]1(C(=O)Nc4ccccc41)[C@@H]32` [gelsemine], the “effect on glycine-evoked currents (in words)” value on α1 GlyR (wild-type, 10 μM gelsemine, 35 μM glycine) is on record as “potentiated”; on chimeric α2α1 GlyR (50 μM gelsemine, 65 μM glycine), “inhibitory effect”.
What is called EC50 is the concentration needed to bring the measured effect to its halfway point. For `NCC(=O)O` [glycine, reference compound], the EC50 on α2β GlyR (read-out: EC50 of agonist) was determined as 105 ± 9 µM; at chimeric α2α1 GlyR (read-out: EC50 of agonist), 104 ± 9 µM.
